Reference: US5010174A, “Novel calcitonin derivative and salt thereof” (Mitsubishi Petrochemical Co., Ltd., priority 1987, dated 1991)

How the values were obtained:
[1] = Biological activity (calcitonin activity, MRC U/mg), assayed by the method of Japanese Provisional Patent Publication No. 123500/1985; format: in vivo; details: for biological activity: method of Japanese Provisional Patent Publication No. 123500/1985; for biological activity, in words, compared with Example 1: measured as in Example 1
Description: The crude (Oct^1, Cys(CA)^7)-CCT obtained was dissolved in a 1 M acetic acid (5 mg/ml) and purified by the reverse phase high performance liquid chromatography. Chemcopack ODS-H (trade name, .phi.: 10 mm×250 mm) column produced by Chemco Co. was used, with the eluents employed being water (100) - 10% TFA (1) for the eluent A and water (40)-acetonitrile (60) - 10% TFA (1) for the eluent B, and the elution was effected under the linear concentration gradient from the eluent A to the eluent B. Here, the numerals within bracckets represent volume ratios. The fraction corresponding to (Oct^1, Cys(CA)^7)-CCT was collected and lyophilized to obtain 2.8 mg of white powder. The biological activity of the white powder obtained was assayed according to the method as described in Japanese Provisional Patent Publication No. 123500/1985.

[2] = Stability test: heating in sodium citrate buffer, remaining peptide by reverse phase HPLC; details: for Stability (ratio of eluted peak area A after heating to area B without heat treatment): 0.1 M sodium citrate buffer pH 6.0, 10 μg/ml, sealed tube, 80° C., 24 hours, reverse phase HPLC
Description: The (Oct^1, Cys(CA)^7)-CCT was dissolved in 0.1 M sodium citrate buffer (pH 6.0) to a concentration of 10 μg/ml. One ml of this solution was left to stand in a sealed tube at 80° C. for 24 hours. By analysis according to the reverse phase HPLC by use of the measurement conditions (1), the eluted peak area A of the remaining (Oct^1, Cys(CA)^7)-CCT was determined. Similarly, the eluted peak area B of the (Oct^1, Cys(CA)^7)-CCT in the sample solution not subjected to the heat treatment was determined, and the ratio of A to B (%) was defined as the index.

Stability (ratio of eluted peak area A after heating to area B without heat treatment) [2]	Substance	biological activity [1]	biological activity, in words, compared with Example 1 [1]	stability, in words, compared with Example 1 ([2]; measured as in Example 1)
90%	(Oct^1, Ala^3, Cys(CA)^7)-CCT	6100 MRC U/mg		
	(Oct^1, Cys(Acm)^7)-CCT	5500 MRC U/mg		
	(Oct^1, Cys(Acm)^7)-ECT	5400 MRC U/mg		
95%	(Oct^1, Cys(CA)^7)-CCT	5400 MRC U/mg	equal to that obtained in Example 1	
	(Oct^1, Cys^7)-CCT		substantially equal to those of (Oct^1, Cys(CA)^7)-CCT of Example 1	substantially equal to those of (Oct^1, Cys(CA)^7)-CCT of Example 1
82%	(Oct^1, Thr^3, Cys(Acm)^7)-CCT	7800 MRC U/mg		
95%	(Oct^1, Thr^3, Cys(CA)^7)-CCT	7800 MRC U/mg		
